Results as given in ChEMBL document CHEMBL1201862, “PubChem BioAssay data set” (2004).
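Assay format: 96-well plates, 48-hour exposure. GI50: concentration for 50% inhibition of growth.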 Activity calls are given as the source filed them. No stated cut-off is given here; in the data, active = GI50 up to about 1.1 µM and inactive = higher.

Key:
Assay in all cases: growth of human tumour cells (NCI), 48 h
A498 = system: A498
A549 = system: A549
ACHN = system: ACHN
CCRF-CEM = system: CCRF-CEM
COLO 205 = system: COLO 205
HCC 2998 = system: HCC 2998
HL-60 = system: HL-60
LOX IMVI = system: LOX IMVI
NCI-H226 = system: NCI-H226
OVCAR-4 = system: OVCAR-4
OVCAR-5 = system: OVCAR-5
SF-268 = system: SF-268
SN12C = system: SN12C
SW-620 = system: SW-620
U-251 = system: U-251
UACC-62 = system: UACC-62
UO-31 = system: UO-31

Measured: GI50

COc1ccc(C(=O)O/N=C2/CCC/C2=C\c2ccccc2)cc1
inactive: A498 > 100 µM | A549 > 100 µM | ACHN > 94.8 µM | CCRF-CEM > 100 µM | COLO 205 > 100 µM | HCC 2998 > 100 µM | HL-60 > 85.9 µM | LOX IMVI > 100 µM | NCI-H226 > 100 µM | OVCAR-4 > 66.1 µM | OVCAR-5 > 100 µM | SF-268 > 81.8 µM | SN12C > 100 µM | SW-620 > 100 µM | U-251 > 70.3 µM | UACC-62 > 100 µM | UO-31 > 100 µM

COC1=CC(O)(CC(N)=O)c2ccccc2C1=O (stereo unspecified)
inactive: A498 > 100 µM | A549 > 100 µM | ACHN > 100 µM | CCRF-CEM > 100 µM | COLO 205 > 100 µM | HCC 2998 > 100 µM | HL-60 > 100 µM | LOX IMVI > 100 µM | NCI-H226 > 100 µM | OVCAR-4 > 100 µM | OVCAR-5 > 100 µM | SF-268 > 100 µM | SN12C > 100 µM | SW-620 > 100 µM | U-251 > 100 µM | UACC-62 > 100 µM | UO-31 > 100 µM

CS/C(=N/C(=O)c1ccccc1)SCCS/C(=N\C(=O)c1ccccc1)SC
inactive: A498 > 100 µM | A549 > 100 µM | ACHN > 100 µM | CCRF-CEM > 100 µM | COLO 205 > 100 µM | HCC 2998 > 100 µM | HL-60 > 100 µM | LOX IMVI > 100 µM | NCI-H226 > 100 µM | OVCAR-4 25 µM | OVCAR-5 > 100 µM | SF-268 > 100 µM | SN12C > 100 µM | SW-620 > 100 µM | U-251 > 100 µM | UACC-62 > 100 µM | UO-31 > 100 µM

CC(C)c1cccc(C(C)C)c1N1C(=O)C(=O)C(c2nc3ccccc3o2)C(=O)C1=O
inactive: A498 > 100 µM | A549 > 100 µM | ACHN > 100 µM | CCRF-CEM 8.95 µM | COLO 205 32.8 µM | HCC 2998 24.3 µM | HL-60 30.3 µM | LOX IMVI > 100 µM | NCI-H226 19.2 µM | OVCAR-4 78.2 µM | OVCAR-5 > 100 µM | SF-268 47.2 µM | SN12C > 100 µM | SW-620 48.1 µM | U-251 > 100 µM | UACC-62 71.6 µM | UO-31 94 µM

CC(=O)O[C@H]1CCC2[C@@H]3CCC4C(=O)c5oncc5C[C@]4(C)C3CC[C@@]21C (stereo partly specified)
inactive: A498 21.7 µM | A549 > 100 µM | ACHN 63 µM | CCRF-CEM > 100 µM | COLO 205 > 100 µM | HCC 2998 > 100 µM | HL-60 > 100 µM | LOX IMVI 28 µM | NCI-H226 > 10 µM | OVCAR-4 5.21 µM | OVCAR-5 > 100 µM | SF-268 > 100 µM | SN12C > 100 µM | SW-620 > 100 µM | U-251 > 100 µM | UACC-62 60.3 µM | UO-31 > 10 µM

CC(C)(C)c1ccc2c(c1)S(=O)(=O)Nc1ccccc1NS(=O)(=O)c1cc(C(C)(C)C)ccc1OCCOCCOCCO2
inactive: A498 52.5 µM | A549 > 100 µM | ACHN > 100 µM | CCRF-CEM > 100 µM | COLO 205 > 100 µM | HCC 2998 > 100 µM | HL-60 > 100 µM | LOX IMVI > 100 µM | NCI-H226 > 100 µM | OVCAR-4 20.9 µM | OVCAR-5 > 100 µM | SF-268 48.4 µM | SN12C > 100 µM | SW-620 > 100 µM | U-251 88.5 µM | UACC-62 64.6 µM | UO-31 > 100 µM

OCCCc1cnco1
inactive: A498 > 100 µM | A549 > 100 µM | ACHN > 100 µM | CCRF-CEM > 100 µM | COLO 205 > 100 µM | HCC 2998 > 100 µM | HL-60 > 100 µM | LOX IMVI > 100 µM | NCI-H226 > 100 µM | OVCAR-4 > 100 µM | OVCAR-5 > 100 µM | SF-268 > 100 µM | SN12C > 100 µM | SW-620 > 100 µM | U-251 > 100 µM | UACC-62 > 100 µM | UO-31 > 100 µM

C/C(C=O)=C1\C(O)C[C@]1(C)C1CC(C)(C)CC1O (stereo partly specified)
inactive: A498 > 100 µM | A549 > 100 µM | ACHN > 100 µM | CCRF-CEM 26.7 µM | COLO 205 > 100 µM | HCC 2998 > 100 µM | HL-60 91 µM | LOX IMVI > 100 µM | NCI-H226 > 100 µM | OVCAR-4 35.7 µM | OVCAR-5 > 100 µM | SF-268 > 100 µM | SN12C > 100 µM | SW-620 > 100 µM | U-251 > 100 µM | UO-31 > 100 µM

COc1cc(/C=C2/C(=O)N(C(=O)OCc3ccccc3)C(Cc3cc(OC)c(OC)c(C)c3OC)C(=O)N2Cc2ccccc2)c(OC)c(C)c1OC (stereo unspecified)
inactive: A498 88.7 µM | A549 > 100 µM | ACHN > 100 µM | COLO 205 > 100 µM | HCC 2998 > 100 µM | HL-60 7.52 µM | LOX IMVI > 100 µM | NCI-H226 2 µM | OVCAR-4 > 100 µM | OVCAR-5 > 100 µM | SF-268 > 100 µM | SN12C > 100 µM | SW-620 > 100 µM | U-251 33.1 µM | UACC-62 > 100 µM | UO-31 > 100 µM

N/C(=N\O)N/N=C\c1c2ccccc2c(Cl)c2ccccc12
inactive: A498 13.5 µM | A549 2.99 µM | ACHN 4.33 µM | CCRF-CEM 5.77 µM | COLO 205 3.67 µM | HCC 2998 3.66 µM | HL-60 2.19 µM | LOX IMVI 2.55 µM | NCI-H226 2.13 µM | OVCAR-4 3.78 µM | OVCAR-5 3.05 µM | SF-268 7.5 µM | SN12C 6.79 µM | SW-620 5.22 µM | U-251 7.5 µM | UACC-62 1.92 µM | UO-31 10.7 µM

CN(C)c1ccc(N=O)c(O)c1.CN(C)c1ccc(N=O)c(O)c1.[SiH4]
inactive: A498 21.3 µM | A549 12.4 µM | ACHN 2.67 µM | CCRF-CEM 4.35 µM | COLO 205 2.96 µM | HCC 2998 15.4 µM | HL-60 4.41 µM | LOX IMVI 5.92 µM | NCI-H226 16.4 µM | OVCAR-4 12.7 µM | OVCAR-5 24 µM | SF-268 6.98 µM | SN12C 12 µM | SW-620 10.2 µM | U-251 8.09 µM | UACC-62 8.49 µM | UO-31 16.3 µM

Cc1ccc(Sc2cc([N+](=O)[O-])cc(Sc3ccc(C)cc3)c2Sc2ccc(C)cc2)cc1
inactive: A498 > 100 µM | A549 > 100 µM | ACHN > 100 µM | CCRF-CEM 27.2 µM | COLO 205 > 100 µM | HCC 2998 > 100 µM | HL-60 > 100 µM | LOX IMVI > 100 µM | NCI-H226 > 100 µM | OVCAR-5 > 100 µM | SF-268 > 100 µM | SN12C > 100 µM | SW-620 > 100 µM | U-251 46.5 µM | UACC-62 > 100 µM | UO-31 > 100 µM
